Experiment [1] concerns the target T1, AMAN-2 (Golgi α-mannosidase II) (Caenorhabditis elegans, UniProt Q2PJ74). Nature of the experiment: α-mannosidase inhibition assay with pNP-Man substrate, AMAN-2. It is filed as biochemical. As to conditions: for Selectivity index, SI [Ki (JBMan)/Ki (AMAN-2)]: ratio of Ki values; for SI [IC50 (JBMan)/IC50 (AMAN-2)]: ratio of IC50 values; for times more potent toward AMAN-2 than DIM: relative to DIM. An excerpt: (§1) The enzymes screened included two Golgi types (GMIIb and AMAN-2) and two lysosomal types (LManII and JBMan) (Table 1).
Recombinant soluble forms of Drosophila melanogaster Golgi (GMIIb) and lysosomal (LManII) α-mannosidases as well as Caenorhabditis elegans Golgi α-mannosidase AMAN-2 were produced in Pichia pastoris and enriched by ammonium sulfate precipitation or nickel chelation chromatography as previously described. The α-mannosidase from Canavalia ensiformis (JBMan) was purchased from Sigma. The mannosidase activity of these enzyme preparations were measured using p-nitrophenyl α -D-mannopyranoside ( pNP-Man; Sigma; 100 mM stock in dimethylsulfoxide) as a substrate at 2 mM final concentration in 50 mM acetate buffer of the relevant previously defined optimal pH, GMIIb and AMAN -2 at pH 6.0, LManII at pH 5.2 , and JBMan at pH 5.0) and 0.5 μL of the enzyme (0.05 µg of protein for JBMan), in a total volume of 50 μL for 1–2 h at 37 °C. GMIIb was assayed in the presence of 0.5 mM CoCl2.
(§2) The lyophilized derivatives used in the assay were dissolved in DMSO to the final concentration 50 mM and further diluted to a desired concentration in water. These derivatives were preincubated with the enzyme in the buffer for 5 min at rt and the reaction was started by addition of the substrate. The reactions were terminated with two volumes (0.1 mL) of 0.5 M sodium carbonate and the production of p-nitrophenol was measured at 405 nm using a multimode reader Mithras LB943 (Berthold Technologies). The average or representative result of three independent experiments made in duplicate is presented.

The target of experiment [2] is T2, LManII (lysosomal α-mannosidase) (Drosophila melanogaster, UniProt Q9VKV1). Description: α-mannosidase inhibition assay with pNP-Man substrate, LManII. As to conditions: for Ki: Dixon plots, pNP-Man 0.5-4 mM, pH 5.2. The class given is biochemical.
From the text: as §1
(§3) Recombinant soluble forms of Drosophila melanogaster Golgi (GMIIb) and lysosomal (LManII) α-mannosidases as well as Caenorhabditis elegans Golgi α-mannosidase AMAN-2 were produced in Pichia pastoris and enriched by ammonium sulfate precipitation or nickel chelation chromatography as previously described. The α-mannosidase from Canavalia ensiformis (JBMan) was purchased from Sigma. […]
(§4) GMIIb was assayed in the […]
(§5) presence of 0.5 mM CoCl2.
as §2

For experiment [3], the target named is T3, GMIIb (Golgi α-mannosidase) (Drosophila melanogaster, UniProt Q9VF33). Description: α-mannosidase inhibition assay with pNP-Man substrate, GMIIb. The class given is biochemical. The settings on record: for Ki: Dixon plots, pNP-Man 0.5-4 mM, pH 6.0.
From the text: as §1, §3, §4, §5, §2

In experiment [4] the target is T4, JBMan (Jack bean α-mannosidase) (Canavalia ensiformis, UniProt C0HJB3).
T4 construct: purchased Sigma
T4 sequence (C0HJB3 1-981): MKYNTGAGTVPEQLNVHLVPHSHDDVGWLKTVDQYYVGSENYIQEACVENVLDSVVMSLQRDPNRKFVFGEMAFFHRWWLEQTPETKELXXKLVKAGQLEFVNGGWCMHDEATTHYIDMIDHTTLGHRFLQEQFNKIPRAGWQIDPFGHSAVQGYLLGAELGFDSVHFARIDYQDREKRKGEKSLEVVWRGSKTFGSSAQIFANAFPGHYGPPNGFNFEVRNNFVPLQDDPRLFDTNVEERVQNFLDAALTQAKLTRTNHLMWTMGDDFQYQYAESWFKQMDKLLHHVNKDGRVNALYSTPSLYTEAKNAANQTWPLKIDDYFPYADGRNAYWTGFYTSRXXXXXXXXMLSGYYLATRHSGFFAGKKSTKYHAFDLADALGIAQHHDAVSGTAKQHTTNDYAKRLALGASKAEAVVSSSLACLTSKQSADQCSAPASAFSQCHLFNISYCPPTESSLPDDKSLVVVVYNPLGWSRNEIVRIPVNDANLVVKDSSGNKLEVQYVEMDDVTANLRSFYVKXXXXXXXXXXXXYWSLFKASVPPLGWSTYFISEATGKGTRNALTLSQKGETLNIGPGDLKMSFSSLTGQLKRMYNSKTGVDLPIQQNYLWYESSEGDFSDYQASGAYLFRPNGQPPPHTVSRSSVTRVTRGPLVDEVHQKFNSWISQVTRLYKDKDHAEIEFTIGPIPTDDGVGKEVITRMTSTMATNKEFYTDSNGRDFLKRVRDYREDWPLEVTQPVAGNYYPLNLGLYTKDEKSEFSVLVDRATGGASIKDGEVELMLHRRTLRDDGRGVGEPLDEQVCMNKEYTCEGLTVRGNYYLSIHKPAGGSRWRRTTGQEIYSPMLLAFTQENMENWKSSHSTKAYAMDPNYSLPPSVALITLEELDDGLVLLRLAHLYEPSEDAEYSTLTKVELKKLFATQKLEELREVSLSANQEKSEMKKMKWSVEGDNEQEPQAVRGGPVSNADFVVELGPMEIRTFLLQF
Nature of the experiment: α-mannosidase inhibition assay with pNP-Man substrate, JBMan. The class given is biochemical. As to conditions: for IC50: 2 mM pNP-Man, pH 5.0, 37 °C; for Ki: Dixon plots, pNP-Man 0.5-4 mM, pH 5.0.
From the text: as §1, §3, §4, §5, §2

Experiment [5] addresses T1, AMAN-2 (Golgi α-mannosidase II). Description: α-mannosidase inhibition assay with pNP-Man substrate, AMAN-2. The class given is biochemical. As to conditions: Dixon plots, pNP-Man 0.5-4 mM, pH 6.0.
Experiment [6] concerns the target T3, GMIIb (Golgi α-mannosidase). As to conditions: ref Kóňa et al. [22]; cited from earlier work.
For experiment [7], the target named is T1, AMAN-2 (Golgi α-mannosidase II). The settings on record: cited from earlier work; for IC50: ref Kóňa et al. [22].
The target of experiment [8] is T4, JBMan (Jack bean α-mannosidase). The settings on record: ref Kóňa et al. [22]; cited from earlier work.
For experiment [9], the target named is T2, LManII (lysosomal α-mannosidase). As to conditions: ref Kóňa et al. [22]; cited from earlier work.
[10] abbreviates: 2 mM pNP-Man, pH 6.0, 37 °C, read-out: IC50 AMAN-2.
[11] abbreviates: 2 mM pNP-Man, pH 5.2, 37 °C, read-out: IC50 LManII.
Where [12] appears, read: 2 mM pNP-Man, pH 6.0, 0.5 mM CoCl2, 37 °C, read-out: IC50 GMIIb.

The source of these data is article PMC10012049, “Synthesis, α-mannosidase inhibition studies and molecular modeling of 1,4-imino-ᴅ-lyxitols and their C-5-altered N-arylalkyl derivatives” (Beilstein Journal of Organic Chemistry, 2023).

Read-outs that look alike come from different tables or passages of the source. Marks after values point to notes of the source that are not given here.

The IC50 is the concentration that inhibits the measured activity by half. Broadly, the Ki is the dissociation constant of the complex between target and ligand, obtained from inhibition or displacement.

T1 sequence (Q2PJ74 entry or part of it): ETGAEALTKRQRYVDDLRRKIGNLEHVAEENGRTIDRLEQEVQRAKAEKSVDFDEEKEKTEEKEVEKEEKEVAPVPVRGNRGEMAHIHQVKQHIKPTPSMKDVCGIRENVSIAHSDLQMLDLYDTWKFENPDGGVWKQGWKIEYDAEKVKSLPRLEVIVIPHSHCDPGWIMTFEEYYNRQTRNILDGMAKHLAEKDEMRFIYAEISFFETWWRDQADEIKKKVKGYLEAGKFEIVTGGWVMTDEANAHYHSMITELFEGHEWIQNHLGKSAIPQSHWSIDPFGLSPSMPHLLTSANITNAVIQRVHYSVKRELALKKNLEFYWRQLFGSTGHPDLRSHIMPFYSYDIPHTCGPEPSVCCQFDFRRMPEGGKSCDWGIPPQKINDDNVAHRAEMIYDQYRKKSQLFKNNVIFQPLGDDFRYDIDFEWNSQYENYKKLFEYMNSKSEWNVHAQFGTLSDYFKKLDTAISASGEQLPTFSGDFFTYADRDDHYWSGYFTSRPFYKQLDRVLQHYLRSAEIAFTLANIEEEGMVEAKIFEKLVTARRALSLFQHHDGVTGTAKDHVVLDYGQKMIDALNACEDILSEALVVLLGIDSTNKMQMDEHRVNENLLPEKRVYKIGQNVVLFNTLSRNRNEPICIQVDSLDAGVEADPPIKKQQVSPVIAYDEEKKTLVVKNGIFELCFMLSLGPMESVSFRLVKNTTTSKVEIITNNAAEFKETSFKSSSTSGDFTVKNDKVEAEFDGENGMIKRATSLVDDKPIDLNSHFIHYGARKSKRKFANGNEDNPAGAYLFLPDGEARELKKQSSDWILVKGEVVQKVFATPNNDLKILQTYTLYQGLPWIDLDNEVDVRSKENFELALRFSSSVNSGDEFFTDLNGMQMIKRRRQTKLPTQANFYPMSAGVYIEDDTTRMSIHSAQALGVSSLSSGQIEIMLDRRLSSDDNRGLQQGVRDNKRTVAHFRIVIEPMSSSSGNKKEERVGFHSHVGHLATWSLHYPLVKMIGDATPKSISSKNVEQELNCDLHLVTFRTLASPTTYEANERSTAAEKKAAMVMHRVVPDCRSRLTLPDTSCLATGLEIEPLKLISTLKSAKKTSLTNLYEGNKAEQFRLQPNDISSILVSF
T2 sequence (Q9VKV1 entry or part of it): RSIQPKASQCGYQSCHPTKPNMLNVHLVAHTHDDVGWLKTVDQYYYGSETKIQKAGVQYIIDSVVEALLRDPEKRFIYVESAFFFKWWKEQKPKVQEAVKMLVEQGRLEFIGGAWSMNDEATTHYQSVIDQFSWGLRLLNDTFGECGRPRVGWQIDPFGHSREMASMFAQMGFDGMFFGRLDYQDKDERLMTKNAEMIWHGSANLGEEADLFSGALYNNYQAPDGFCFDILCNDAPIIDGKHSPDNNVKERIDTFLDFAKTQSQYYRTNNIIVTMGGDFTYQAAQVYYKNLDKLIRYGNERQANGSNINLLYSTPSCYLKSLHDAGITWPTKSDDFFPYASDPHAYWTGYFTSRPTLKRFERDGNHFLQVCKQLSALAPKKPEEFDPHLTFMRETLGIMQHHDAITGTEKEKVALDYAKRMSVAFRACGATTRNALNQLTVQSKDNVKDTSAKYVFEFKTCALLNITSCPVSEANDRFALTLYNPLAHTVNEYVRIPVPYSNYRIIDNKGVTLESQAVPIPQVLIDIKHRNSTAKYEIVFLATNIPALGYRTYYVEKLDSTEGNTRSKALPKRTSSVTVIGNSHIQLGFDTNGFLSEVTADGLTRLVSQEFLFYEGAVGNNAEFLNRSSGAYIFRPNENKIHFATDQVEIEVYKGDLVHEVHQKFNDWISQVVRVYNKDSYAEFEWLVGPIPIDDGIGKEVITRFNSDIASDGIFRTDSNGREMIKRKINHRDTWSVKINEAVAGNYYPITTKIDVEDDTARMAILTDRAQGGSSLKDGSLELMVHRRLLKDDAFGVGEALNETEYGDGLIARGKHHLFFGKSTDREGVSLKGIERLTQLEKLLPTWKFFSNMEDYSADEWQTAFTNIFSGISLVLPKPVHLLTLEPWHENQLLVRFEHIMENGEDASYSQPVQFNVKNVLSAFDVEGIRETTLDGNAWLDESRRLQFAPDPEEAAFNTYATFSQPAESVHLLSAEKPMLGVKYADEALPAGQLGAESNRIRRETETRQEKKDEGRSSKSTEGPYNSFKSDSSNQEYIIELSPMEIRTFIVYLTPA
T3 sequence (Q9VF33 entry or part of it): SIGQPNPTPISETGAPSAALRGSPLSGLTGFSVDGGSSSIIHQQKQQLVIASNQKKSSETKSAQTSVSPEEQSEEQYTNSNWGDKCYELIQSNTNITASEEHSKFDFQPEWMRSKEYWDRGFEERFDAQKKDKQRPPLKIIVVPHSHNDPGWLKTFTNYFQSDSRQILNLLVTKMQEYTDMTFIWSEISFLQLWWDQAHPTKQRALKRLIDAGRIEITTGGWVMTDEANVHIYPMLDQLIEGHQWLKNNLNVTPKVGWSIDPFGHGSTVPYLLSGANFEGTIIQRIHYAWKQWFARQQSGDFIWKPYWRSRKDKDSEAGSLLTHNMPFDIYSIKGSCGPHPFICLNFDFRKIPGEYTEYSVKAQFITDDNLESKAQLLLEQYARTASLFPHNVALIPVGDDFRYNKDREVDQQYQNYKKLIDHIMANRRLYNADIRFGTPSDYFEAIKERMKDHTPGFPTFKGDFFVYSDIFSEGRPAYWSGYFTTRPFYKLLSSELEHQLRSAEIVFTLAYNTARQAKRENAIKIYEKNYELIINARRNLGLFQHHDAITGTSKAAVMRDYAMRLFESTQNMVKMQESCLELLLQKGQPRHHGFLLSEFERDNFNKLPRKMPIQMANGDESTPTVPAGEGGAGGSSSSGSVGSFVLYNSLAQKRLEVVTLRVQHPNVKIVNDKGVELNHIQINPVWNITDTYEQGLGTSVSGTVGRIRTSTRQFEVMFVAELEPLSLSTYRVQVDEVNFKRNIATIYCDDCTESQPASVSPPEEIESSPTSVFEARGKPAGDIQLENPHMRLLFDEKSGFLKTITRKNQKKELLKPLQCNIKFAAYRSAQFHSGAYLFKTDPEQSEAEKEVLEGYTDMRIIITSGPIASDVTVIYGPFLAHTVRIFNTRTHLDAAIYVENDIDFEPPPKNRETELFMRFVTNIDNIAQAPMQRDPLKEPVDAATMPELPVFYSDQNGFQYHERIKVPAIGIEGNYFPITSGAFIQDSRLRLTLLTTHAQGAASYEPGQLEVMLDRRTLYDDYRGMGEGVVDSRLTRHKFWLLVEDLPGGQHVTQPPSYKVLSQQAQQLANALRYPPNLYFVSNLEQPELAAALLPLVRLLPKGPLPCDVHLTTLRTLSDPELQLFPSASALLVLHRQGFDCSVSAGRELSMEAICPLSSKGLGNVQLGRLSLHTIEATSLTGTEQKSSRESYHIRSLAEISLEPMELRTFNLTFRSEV

With `OC[C@@H](O)[C@H]1NC[C@@H](O)[C@H]1O` [DIM, 1,4-dideoxy-1,4-imino-ᴅ-mannitol, reference compound], the IC50 in experiment [1] (setting [10]) is 0.81 ± 0.03 µM; in experiment [2] (setting [11]), 2.55 ± 0.1 µM; in experiment [3] (setting [12]) it was 0.19 ± 0.04 µM; in [4], 0.72 ± 0.03 µM. Further, the “Selectivity index, SI [Ki (JBMan)/Ki (AMAN-2)]” value (“Selectivity index, SI” below) in [1] stood at 0.6. In addition, the Ki in experiment [2] was 1.95 µM; in [3], 0.13 µM; in experiment [4], 0.38 µM; in experiment [5] it was 0.68 µM.

For `C[C@@H]1[C@H](O)[C@H](O)CN1Cc1ccccc1` [compound 7], the IC50 is 975 ± 25 µM in experiment [1] (setting [10]), above 4000 µM in experiment [2] (setting [11]), 245 ± 35 µM in experiment [3] (setting [12]) and above 4000 µM in experiment [4].

With `C[C@@H]1[C@H](O)[C@H](O)CN1Cc1ccc(I)cc1` [compound 8], the half-inhibitory concentration (IC50) in experiment [1] (setting [10]) is 385 ± 15 µM; in experiment [2] (setting [11]) it was above 4000 µM; in experiment [3] (setting [12]) it was 205 ± 35 µM; in [4], above 4000 µM.

On to `C[C@@H]1[C@H](O)[C@H](O)CN1Cc1ccc2ccccc2c1` [compound 9], for which the IC50 in experiment [1] (setting [10]) was 605 ± 35 µM; in experiment [2] (setting [11]), above 4000 µM; in experiment [3] (setting [12]), 310 ± 22 µM; in experiment [4], above 4000 µM.

For `C[C@H]1NC[C@@H](O)[C@H]1O` [compound 10], the IC50 is 415 ± 15 µM in experiment [1], above 4000 µM in experiment [2], 525 ± 25 µM in experiment [3] and 2880 ± 275 µM in experiment [4].

For the compound `C[C@H](O)[C@@H]1[C@H](O)[C@H](O)CN1Cc1ccccc1` [compound 17], the IC50 in experiment [1] (setting [10]) was 990 ± 10 µM; in experiment [2] (setting [11]) it was above 4000 µM; in experiment [3] (setting [12]), 335 ± 37 µM; in experiment [4], above 4000 µM.

In the case of `C[C@H](O)[C@@H]1[C@H](O)[C@H](O)CN1Cc1ccc(I)cc1` [compound 18], the IC50 in experiment [1] (setting [10]) was 205 ± 5 µM; in experiment [2] (setting [11]), above 4000 µM; in experiment [3] (setting [12]) it was 170 ± 10 µM; in experiment [4], above 4000 µM.

Consider `C[C@H](O)[C@@H]1[C@H](O)[C@H](O)CN1Cc1ccc2ccccc2c1` [compound 19], for which the IC50 in experiment [1] (setting [10]) is 1680 ± 75 µM; in [2] (setting [11]), above 4000 µM; in experiment [3] (setting [12]) it was 860 ± 140 µM; in experiment [4] it was above 4000 µM.

`C[C@H](O)[C@H]1NC[C@@H](O)[C@H]1O` [compound 20]: the IC50 in [1] (setting [10]) came to 48 ± 6 µM; in experiment [2] (setting [11]) it was 295 ± 20 µM; in experiment [3] (setting [12]), 30 ± 5 µM; in [4] it was 105 ± 25 µM. Also, the “SI [IC50 (JBMan)/IC50 (AMAN-2)]” value in [1] was 2.2^b.

Regarding `C[C@@H](O)[C@@H]1[C@H](O)[C@H](O)CN1Cc1ccccc1` [compound 26], the IC50 worked out at 115 ± 18 µM in experiment [1] (setting [10]), 505 ± 57 µM in [2] (setting [11]), 33 ± 3.7 µM in experiment [3] (setting [12]) and 298 ± 30 µM in experiment [4]. For the same compound, the “Selectivity index, SI” value in experiment [1] came to 1.4. The Ki is 270 µM in [2], 16.2 µM in experiment [3], 80 µM in experiment [4] and 58 µM in experiment [5].

On to `C[C@@H](O)[C@@H]1[C@H](O)[C@H](O)CN1Cc1ccc(I)cc1` [compound 27], for which the IC50 in experiment [1] (setting [10]) was found to be 66 ± 10 µM; in experiment [2] (setting [11]) it was 410 ± 80 µM; in experiment [3] (setting [12]) it was 13 ± 5.5 µM; in [4], 164 ± 28 µM. Besides, the “Selectivity index, SI” value in [1] came out at 2.1. Moreover, the Ki in experiment [2] was 263 µM; in [3] it was 4.2 µM; in experiment [4], 73 µM; in experiment [5] it was 34 µM.

As to `C[C@@H](O)[C@@H]1[C@H](O)[C@H](O)CN1Cc1ccc2ccccc2c1` [compound 28], the IC50 in experiment [1] (setting [10]) turned out to be 22 ± 4 µM; in [2] (setting [11]), 118 ± 10 µM; in [3] (setting [12]), 13.5 ± 5.5 µM; in experiment [4], 78 ± 16 µM. Further, the “Selectivity index, SI” value in experiment [1] worked out at 2.4. Further, the inhibition constant (Ki) in experiment [2] is 98 µM; in experiment [3], 5.2 µM; in [4], 44 µM; in experiment [5] it was 18 µM.

Consider `C[C@@H](O)[C@H]1NC[C@@H](O)[C@H]1O` [compound 29, 6-deoxy-DIM], for which the IC50 in experiment [1] (setting [10]) came to 0.24 ± 0.05 µM; in experiment [2] (setting [11]) it was 0.82 ± 0.19 µM; in [3] (setting [12]), 0.12 ± 0.02 µM; in experiment [4], 0.32 ± 0.11 µM. Besides, the “Selectivity index, SI” value in experiment [1] was 0.6. For the same compound, the “times more potent toward AMAN-2 than DIM” value was around 4 times in experiment [1] and 3.5 times in experiment [1] (listed as 6-deoxy-DIM). Further, the Ki in experiment [2] was 0.38 µM; in experiment [3] it was 0.065 µM; in experiment [4], 0.12 µM; in experiment [5], 0.19 µM.

Turning to `OC[C@H]1NC[C@@H](O)[C@H]1O` [compound 30], the “SI [IC50 (JBMan)/IC50 (AMAN-2)]” value in experiment [1] is given as 5^b. Moreover, the IC50 is 3.9 ± 0.1 µM in [6], 2.3 ± 0.1 µM in [7], 10.5 ± 1.3 µM in experiment [8] and 30.5 ± 3 µM in [9]. In [7], the Ki is 2.3 µM.

As to “N-2-naphthylmethyl 1,4-imino-ᴅ-lyxitol [compound 31]”, the “SI [IC50 (JBMan)/IC50 (AMAN-2)]” value in experiment [1] is recorded as 812^b. Besides, the IC50 in experiment [6] was 7.6 ± 1.1 µM; in experiment [7], 2.4 ± 0.1 µM; in experiment [8], 1950 ± 250 µM; in [9] it was 845 ± 170 µM.
